Results as given in patent US10471050B2, “2-OXO-1,2-dihydropyridine-3,5-dicarboxamide compounds as bromodomain inhibitors” (GlaxoSmithKline Intellectual Property (No. 2) Limited, priority 2015, dated 2019).

biological target: T1, BRD4 BD2 (Homo sapiens, UniProt O60885, Y97A); assay: BRD4 BD2 TR-FRET competition assay; assay type: binding; details: average of N recorded values, read-out: BRD4 BD2 IC50 (average value) (converted)
T1 construct: BRD4 (1-477) (Y97A) and (Y390A); made in house; host or cells: E. coli (pET15b vector)
Procedure: Bromodomain binding was assessed utilising a time resolved fluorescent resonance energy transfer (TR-FRET) competition assay. To enable this approach a known, high affinity, pan-BET interacting small molecule was labelled with Alexa Fluor® 647, which is a far-red-fluorescent dye (Reference Compound X). Reference Compound X acts as a reporter of bromodomain binding and is the acceptor fluorophore component of the TR-FRET pair. Europium chelate, conjugated to an anti-6*His antibody, was utilised as the donor fluorophore in the TR-FRET pair. […] A TR-FRET signal is generated when the donor and acceptor fluorophores are in close proximity, between 20-80 Å, which is enabled in this assay by binding of Reference Compound X to the bromodomain protein.
In order to generate a TR-FRET signal, donor fluorophore is excited by a laser at λ337 nm, which subsequently leads to emission at λ618 nm. If the acceptor fluorophore is in close proximity then energy transfer can occur, which leads to emission of Alexa Fluor® 647 at λ665 nm. In the presence of competitor compound, Reference Compound X can be displaced from binding to the bromodomain. If displacement occurs, the acceptor fluorophore is no longer in proximity to the donor fluorophore, which prevents fluorescent energy transfer and, subsequently, a loss of Alexa Fluor® 647 emission at λ665 nm.
The competition of the compounds of formula (I) with Reference Compound X for binding to the BET family (BRD2, BRD3, BRD4 and BRDT) was assessed using protein truncates spanning both bromodomain 1 (BD1) and bromodomain 2 (BD2). In order to monitor differential binding to either BD1 or BD2, single residue mutations of key tyrosines to alanine were made in the acetyl lysine binding pockets. To validate this approach, a double residue mutant tandem domain protein was produced for each of the BET family members. Utilising a Fluorescence Polarisation approach, binding affinities for each of the single and double mutants for Reference Compound X were determined.
Final purification was completed by Superdex 200 prep grade size exclusion column. Purified protein was stored at −80° C. in 20 mM HEPES pH 7.5 and 100 mM NaCl.
All assay components were dissolved in an assay buffer composing of 50 mM HEPES pH7.4, 50 mM NaCl, 5% Glycerol, 1 mM DTT and 1 mM CHAPS. Reference Compound X was diluted, in assay buffer containing 20 nM single mutant, tandem bromodomain protein, to a concentration equivalent to 2*Kd for this bromodomain. The solution containing bromodomain and Reference Compound X was added to dose response dilutions of test compound or DMSO vehicle (a maximum of 0.5% DMSO is used in this assay) in Greiner 384 well black low volume microtitre plates and subsequently incubated for 30 minutes at room temperature. An equal volume of 3 nM of anti-6*His Europium chelate was added to all wells, followed by a further 30 minute incubation at room temperature. TR-FRET was detected using a Perkin Elmer Multimode plate reader, by exciting the donor fluorophore at λ337 nm and subsequently, after a delay of 50 μsecs, measuring emission of the donor and acceptor fluorophores at λ615 nm and λ665 nm, respectively. In order to control these assays, 16 replicates each of uninhibited (DMSO vehicle) and inhibited (10*IC50 concentrations of Example 11 of WO 2011/054846A1) TR-FRET assays were included on every microtitre plate.
cA four parameter curve fit of the following form was then applied: y=a+((b−a)/(1+(10^x/10^c)^d)
Where ‘a’ is the minimum, ‘b’ is the Hill slope, ‘c’ is the pIC50 and ‘d’ is the maximum.

| SMILES | IC50 [nM] |
| --- | --- |
| CCCNC(=O)c1cc(C(=O)NC)c(=O)n(Cc2ccccc2)c1 [Example 2, 1-Benzyl-N^3-methyl-2-oxo-N^5-propyl-1,2-dihydropyridine-3,5-dicarboxamide] | 126 |
| CNC(=O)c1cc(C(=O)NCCCc2ncc[nH]2)cn(Cc2ccccc2)c1=O [Example 11, N^5-(3-(1H-Imidazol-2-yl)propyl)-1-benzyl-N^3-methyl-2-oxo-1,2-dihydropyridine-3,5-dicarboxamide] | 63.1 |

same assay, conditions: single mutant tandem BRD4, read-out: pIC50 in the BRD4 BD2 assay (converted)

| SMILES | IC50 [nM] |
| --- | --- |
| CNC(=O)c1cc(C(=O)NCCCN)cn(Cc2ccccc2)c1=O [Example 38, N^5-(3-Aminopropyl)-1-benzyl-N^3-methyl-2-oxo-1,2-dihydropyridine-3,5-dicarboxamide] | 100 to 1000 |
| CNC(=O)c1cc(C(=O)NCCc2c[nH]cn2)cn(Cc2cccc(C)c2F)c1=O [Example 49, N^5-(2-(1H-Imidazol-4-yl)ethyl)-1-(2-fluoro-3-methylbenzyl)-N3-methyl-2-oxo-1,2-dihydropyridine-3,5-dicarboxamide] | 100 to 1000 |
| CCNC(=O)c1cc(C(=O)NC)c(=O)n([C@H](C)c2ccccc2)c1 [Example 16, (R)-N^5-Ethyl-N^3-methyl-2-oxo-1-(1-phenylethyl)-1,2-dihydropyridine-3,5-dicarboxamide] | 100 to 1000 |
| CNC(=O)c1cc(C(=O)NCCc2cn[nH]c2)cn(Cc2cccc(OCCO)c2)c1=O [Example 21, N^5-(2-(1H-pyrazol-4-yl)ethyl)-1-(3-(2-hydroxyethoxy)benzyl)-N^3-methyl-2-oxo-1,2-dihydropyridine-3,5-dicarboxamide] | 100 to 1000 |
| CNC(=O)c1cc(C(=O)NCCc2c[nH]cn2)cn(Cc2cccc3[nH]ccc23)c1=O [Example 24, N^5-(2-(1H-Imidazol-4-yl)ethyl)-1-((1H-indol-4-yl)methyl)-N^3-methyl-2-oxo-1,2-dihydropyridine-3,5-dicarboxamide] | ≤ 100 |
| CNC(=O)c1cc(C(=O)NCCc2cnc[nH]2)cn(Cc2ccccc2)c1=O [Example 8, N^5-(2-(1H-Imidazol-5-yl)ethyl)-1-benzyl-N^3-methyl-2-oxo-1,2-dihydropyridine-3,5-dicarboxamide] | 100 to 1000 |
| CCCCNC(=O)c1cc(C(=O)NC)c(=O)n(Cc2ccccc2)c1 [Example 3, 1-Benzyl-N^5-butyl-N^3-methyl-2-oxo-1,2-dihydropyridine-3,5-dicarboxamide] | 100 to 1000 |
| CNC(=O)c1cc(C(=O)NCCc2cn[nH]c2)cn([C@H](C)c2ccccc2)c1=O [Example 15, (R)-N^5-(2-(1H-Pyrazol-4-yl)ethyl)-N^3-methyl-2-oxo-1-(1-phenylethyl)-1,2-dihydropyridine-3,5-dicarboxamide] | ≤ 100 |
| CCCNC(=O)c1cc(C(=O)NC)c(=O)n(Cc2ccccc2)c1 [Example 2, 1-Benzyl-N^3-methyl-2-oxo-N^5-propyl-1,2-dihydropyridine-3,5-dicarboxamide] | 100 to 1000 |
| CNC(=O)c1cc(C(=O)NCCC(F)(F)F)cn(Cc2ccccc2)c1=O [Example 7, 1-Benzyl-N^3-methyl-2-oxo-N^5-(3,3,3-trifluoropropyl)-1,2-dihydropyridine-3,5-dicarboxamide] | 100 to 1000 |
| CNC(=O)c1cc(C(=O)NCCS(C)(=O)=O)cn(Cc2ccccc2)c1=O [Example 45, 1-Benzyl-N^3-methyl-N^5-(2-(methylsulfonyl)ethyl)-2-oxo-1,2-dihydropyridine-3,5-dicarboxamide] | 100 to 1000 |
| CNC(=O)c1cc(C(=O)NCCC(C)O)cn(Cc2ccccc2)c1=O (stereo not shown) [Example 39, 1-Benzyl-N^5-(3-hydroxybutyl)-N^3-methyl-2-oxo-1,2-dihydropyridine-3,5-dicarboxamide] | 100 to 1000 |
| CNC(=O)c1cc(C(=O)NCCCO)cn(Cc2ccccc2)c1=O [Example 32, 1-Benzyl-N^5-(3-hydroxypropyl)-N^3-methyl-2-oxo-1,2-dihydropyridine-3,5-dicarboxamide] | 100 to 1000 |
| CNC(=O)c1cc(C(=O)NCCc2cn[nH]c2)cn(Cc2cccc3[nH]ccc23)c1=O [Example 26, 1-((1H-Indol-4-yl)methyl)-N^5-(2-(1H-pyrazol-4-yl)ethyl)-N^3-methyl-2-oxo-1,2-dihydropyridine-3,5-dicarboxamide] | ≤ 100 |
| CNC(=O)c1cc(C(=O)NCCc2cn[nH]c2)cn(Cc2ccccc2)c1=O [Example 12, N^5-(2-(1H-Pyrazol-4-yl)ethyl)-1-benzyl-N^3-methyl-2-oxo-1,2-dihydropyridine-3,5-dicarboxamide] | ≤ 100 |
| CNC(=O)c1cc(C(=O)NCCCNC(=O)OC(C)(C)C)cn(Cc2ccccc2)c1=O [Example 6, tert-Butyl (3-(1-benzyl-5-(methylcarbamoyl)-6-oxo-1,6-dihydropyridine-3-carboxamido)propyl)carbamate] | 100 to 1000 |
| CNC(=O)c1cc(C(=O)NCCc2cn[nH]c2)cn(Cc2cccc(C)c2F)c1=O [Example 23, N^5-(2-(1H-Pyrazol-4-yl)ethyl)-1-(2-fluoro-3-methylbenzyl)-N^3-methyl-2-oxo-1,2-dihydropyridine-3,5-dicarboxamide] | 100 to 1000 |
| CNC(=O)c1cc(C(=O)NCCCN(C)C)cn(Cc2ccccc2)c1=O [Example 47, 1-Benzyl-N^5-(3-(dimethylamino)propyl)-N^3-methyl-2-oxo-1,2-dihydropyridine-3,5-dicarboxamide] | 100 to 1000 |
| CCNC(=O)c1cc(C(=O)NC)c(=O)n(Cc2cccc(OC)c2)c1 [Example 18, N^5-ethyl-1-(3-methoxybenzyl)-N^3-methyl-2-oxo-1,2-dihydropyridine-3,5-dicarboxamide] | 100 to 1000 |
| CNC(=O)c1cc(C(=O)NCC(C)O)cn(Cc2ccccc2)c1=O (stereo not shown) [Example 31, 1-Benzyl-N^5-(2-hydroxypropyl)-N^3-methyl-2-oxo-1,2-dihydropyridine-3,5-dicarboxamide] | 1000 to 100000 |
| CNC(=O)c1cc(C(=O)NCCCS(C)(=O)=O)cn(Cc2ccccc2)c1=O [Example 48, 1-Benzyl-N^3-methyl-N^5-(3-(methylsulfonyl)propyl)-2-oxo-1,2-dihydropyridine-3,5-dicarboxamide] | 100 to 1000 |
| CNC(=O)c1cc(C(=O)NCCc2cn[nH]c2)cn(Cc2cccc(OC)c2)c1=O [Example 17, N^5-(2-(1H-pyrazol-4-yl)ethyl)-1-(3-methoxybenzyl)-N^3-methyl-2-oxo-1,2-dihydropyridine-3,5-dicarboxamide] | 100 to 1000 |
| CNC(=O)c1cc(C(=O)NCCc2cnn(C)c2)cn(Cc2ccccc2)c1=O [Example 52, 1-Benzyl-N^3-methyl-N^5-(2-(1-methyl-1H-pyrazol-4-yl)ethyl)-2-oxo-1,2-dihydropyridine-3,5-dicarboxamide] | 100 to 1000 |
| CNC(=O)c1cc(C(=O)NCCc2c[nH]cn2)cn(Cc2cccc(OCCO)c2)c1=O [Example 19, N^5-(2-(1H-imidazol-4-yl)ethyl)-1-(3-(2-hydroxyethoxy)benzyl)-N^3-methyl-2-oxo-1,2-dihydropyridine-3,5-dicarboxamide] | 100 to 1000 |
| CNC(=O)c1cc(C(=O)NCCCc2ncc[nH]2)cn(Cc2ccccc2)c1=O [Example 11, N^5-(3-(1H-Imidazol-2-yl)propyl)-1-benzyl-N^3-methyl-2-oxo-1,2-dihydropyridine-3,5-dicarboxamide] | ≤ 100 |
| CCNC(=O)c1cc(C(=O)NC)c(=O)n(Cc2cccc(C)c2)c1 [Example 14, N^5-Ethyl-N^3-methyl-1-(3-methylbenzyl)-2-oxo-1,2-dihydropyridine-3,5-dicarboxamide] | 100 to 1000 |
| CNC(=O)c1cc(C(=O)NCCCOC)cn(Cc2ccccc2)c1=O [Example 42, 1-Benzyl-N^5-(3-methoxypropyl)-N^3-methyl-2-oxo-1,2-dihydropyridine-3,5-dicarboxamide] | 100 to 1000 |
| CNC(=O)c1cc(C(=O)Nc2ccn(C)n2)cn(Cc2ccccc2)c1=O [Example 51, 1-Benzyl-N^3-methyl-N^5-(1-methyl-1H-pyrazol-3-yl)-2-oxo-1,2-dihydropyridine-3,5-dicarboxamide] | 100 to 1000 |
| CNC(=O)c1cc(C(=O)Nc2cnn(C)c2)cn(Cc2ccccc2)c1=O [Example 53, 1-Benzyl-N^3-methyl-N^5-(1-methyl-1H-pyrazol-4-yl)-2-oxo-1,2-dihydropyridine-3,5-dicarboxamide] | ≤ 100 |
